ChEMBL document CHEMBL3297657, “Synthesis and antitumor activities of novel α-aminophosphonate derivatives containing an alizarin moiety” (Eur J Med Chem, 2014)
Active and inactive are the calls of the source. No cut-off for these calls is given here.

How the values were obtained:
[1] = test system: NCI-H460; assay: Induction of apoptosis in human NCI-H460 cells assessed as viable cells at 20 uM after 24 hrs by Annexin V/propidium iodide staining-based flow cytometry (reference value: 72.2%); format: functional; conditions: NCI-H460, 24 h, read-out: Activity
[2] = test system: NCI-H460; assay: Cell cycle arrest in human NCI-H460 cells assessed as accumulation at G2 phase at 10 uM after 48 hrs by Rnase A/propidium iodide staining-based flow cytometry (reference value: 33.9%); format: functional
[3] = test system: HepG2; assay: cells; conditions: Homo sapiens, HepG2, 48 h
Description: Cytotoxicity against human HepG2 cells after 48 hrs by MTT assay

[4] = test system: NCI-H460; assay: Induction of apoptosis in human NCI-H460 cells assessed as upregulation of CAMK2 mRNA expression after 24 hrs by qRT-PCR analysis; format: functional, cell-based
[5] = test system: NCI-H460; assay: Induction of apoptosis in human NCI-H460 cells assessed as viable cells at 8 uM after 12 hrs by Annexin V/propidium iodide staining-based flow cytometry (reference value: 72.2%); format: functional; conditions: NCI-H460, 12 h, read-out: Activity
[6] = test system: NCI-H460; assay: Induction of apoptosis in human NCI-H460 cells assessed as downregulation of Bcl-2 mRNA expression after 24 hrs by qRT-PCR analysis; format: functional, cell-based
[7] = test system: NCI-H460; assay: Induction of apoptosis in human NCI-H460 cells assessed as upregulation of cytochrome C mRNA expression after 24 hrs by qRT-PCR analysis; format: functional, cell-based
[8] = test system: NCI-H460; assay: Induction of apoptosis in human NCI-H460 cells assessed as karyopyknosis and chromatin condensation at 8 uM by Hoechst 33258 staining-based fluorescence microscopy relative to control; format: functional, cell-based; conditions: TDE = time-dependent effect
[9] = test system: KB; assay: Cytotoxicity against human KB cells after 48 hrs by MTT assay; format: functional, cell-based
[10] = test system: NCI-H460; assay: Induction of apoptosis in human NCI-H460 cells assessed as change in mitochondrial membrane potential at 5 to 20 uM after 24 hrs by JC-1 staining-based fluorescence microscopy relative to control; format: functional, cell-based
[11] = test system: NCI-H460; assay: Cell cycle arrest in human NCI-H460 cells assessed as accumulation at G1 phase at 10 uM after 48 hrs by Rnase A/propidium iodide staining-based flow cytometry (reference value: 46.69%); format: functional
[12] = test system: NCI-H460; assay: Induction of apoptosis in human NCI-H460 cells assessed as necrotic cells at 8 uM after 12 hrs by Annexin V/propidium iodide staining-based flow cytometry (reference value: 6.9%); format: functional
[13] = test system: NCI-H460; assay: Induction of apoptosis in human NCI-H460 cells assessed as viable cells at 10 uM after 24 hrs by Annexin V/propidium iodide staining-based flow cytometry (reference value: 72.2%); format: functional; conditions: NCI-H460, 24 h, read-out: Activity
[14] = test system: NCI-H460; assay: Cell cycle arrest in human NCI-H460 cells assessed as accumulation at S phase at 8 uM after 24 hrs by Rnase A/propidium iodide staining-based flow cytometry (reference value: 19.41%); format: functional
[15] = test system: NCI-H460; assay: Induction of apoptosis in human NCI-H460 cells assessed as necrotic cells at 8 uM after 24 hrs by Annexin V/propidium iodide staining-based flow cytometry (reference value: 6.9%); format: functional
[16] = test system: NCI-H460; assay: Induction of apoptosis in human NCI-H460 cells assessed as caspase-3 activation after 24 hrs by qRT-PCR analysis; format: functional, cell-based
[17] = test system: NCI-H460; assay: Induction of apoptosis in human NCI-H460 cells assessed as viable cells at 5 uM after 24 hrs by Annexin V/propidium iodide staining-based flow cytometry (reference value: 72.2%); format: functional; conditions: NCI-H460, 24 h, read-out: Activity
[18] = test system: NCI-H460; assay: Induction of apoptosis in human NCI-H460 cells assessed as viable cells at 8 uM by Annexin V/propidium iodide staining-based flow cytometry; format: functional, cell-based; conditions: TDE = time-dependent effect
[19] = test system: NCI-H460; assay: Induction of apoptosis in human NCI-H460 cells assessed as change in mitochondrial membrane potential at 8 uM after 12 to 48 hrs by JC-1 staining-based fluorescence microscopy relative to control; format: functional, cell-based
[20] = test system: NCI-H460; assay: Induction of apoptosis in human NCI-H460 cells assessed as late apoptotic cells after 24 hrs by Annexin V/propidium iodide staining-based flow cytometry; format: functional, cell-based
[21] = test system: NCI-H460; assay: Induction of apoptosis in human NCI-H460 cells assessed as viable cells at 8 uM after 48 hrs by Annexin V/propidium iodide staining-based flow cytometry (reference value: 72.2%); format: functional; conditions: NCI-H460, 48 h, read-out: Activity
[22] = test system: NCI-H460; assay: Cell cycle arrest in human NCI-H460 cells assessed as accumulation at G2 phase at 8 uM after 48 hrs by Rnase A/propidium iodide staining-based flow cytometry (reference value: 33.9%); format: functional
[23] = test system: NCI-H460; assay: Induction of apoptosis in human NCI-H460 cells assessed as late apoptotic cells at 8 uM after 24 hrs by Annexin V/propidium iodide staining-based flow cytometry (reference value: 14.1%); format: functional
[24] = test system: NCI-H460; assay: Induction of apoptosis in human NCI-H460 cells assessed as early apoptotic cells at 8 uM after 12 hrs by Annexin V/propidium iodide staining-based flow cytometry (reference value: 6.8%); format: functional
[25] = test system: NCI-H460; assay: Induction of apoptosis in human NCI-H460 cells assessed as late apoptotic cells at 8 uM by Annexin V/propidium iodide staining-based flow cytometry; format: functional, cell-based; conditions: TDE = time-dependent effect
[26] = test system: NCI-H460; assay: Induction of apoptosis in human NCI-H460 cells assessed as necrotic cells after 24 hrs by Annexin V/propidium iodide staining-based flow cytometry; format: functional, cell-based
[27] = test system: NCI-H460; assay: Cell cycle arrest in human NCI-H460 cells assessed as accumulation at S phase at 10 uM after 48 hrs by Rnase A/propidium iodide staining-based flow cytometry (reference value: 19.41%); format: functional
[28] = test system: NCI-H460; assay: Cell cycle arrest in human NCI-H460 cells assessed as accumulation at G1 phase at 8 uM after 24 hrs by Rnase A/propidium iodide staining-based flow cytometry (reference value: 46.69%); format: functional
[29] = test system: NCI-H460; assay: Induction of apoptosis in human NCI-H460 cells assessed as necrotic cells at 5 uM after 24 hrs by Annexin V/propidium iodide staining-based flow cytometry (reference value: 6.9%); format: functional
[30] = test system: NCI-H460; assay: Cell cycle arrest in human NCI-H460 cells assessed as accumulation at S phase at 20 uM after 48 hrs by Rnase A/propidium iodide staining-based flow cytometry (reference value: 19.41%); format: functional
[31] = test system: NCI-H460; assay: Cell cycle arrest in human NCI-H460 cells assessed as accumulation at G1 phase at 8 uM after 12 hrs by Rnase A/propidium iodide staining-based flow cytometry (reference value: 46.69%); format: functional
[32] = test system: NCI-H460; assay: Induction of apoptosis in human NCI-H460 cells assessed as late apoptotic cells at 5 uM after 24 hrs by Annexin V/propidium iodide staining-based flow cytometry (reference value: 14.1%); format: functional
[33] = test system: NCI-H460; assay: Cytotoxicity against human NCI-H460 cells after 48 hrs by MTT assay; format: functional, cell-based; conditions: NCI-H460, 48 h
[34] = test system: NCI-H460; assay: Induction of apoptosis in human NCI-H460 cells assessed as late apoptotic cells at 8 uM after 48 hrs by Annexin V/propidium iodide staining-based flow cytometry (reference value: 14.1%); format: functional
[35] = test system: NCI-H460; assay: Cell cycle arrest in human NCI-H460 cells assessed as accumulation at G1 phase at 8 uM after 48 hrs by Rnase A/propidium iodide staining-based flow cytometry (reference value: 46.69%); format: functional
[36] = test system: NCI-H460; assay: Cell cycle arrest in human NCI-H460 cells assessed as accumulation at S phase at 8 uM after 48 hrs by Rnase A/propidium iodide staining-based flow cytometry (reference value: 19.41%); format: functional
[37] = test system: HeLa; assay: cells; conditions: Homo sapiens, 48 h
Description: Cytotoxicity against human HeLa cells after 48 hrs by MTT assay

Compound	viability at 20 µM [1]	Activity [2]	IC50 [3]	Activity [4]	viability at 8 µM [5]	Activity [6]	Activity [7]	Activity [8]	IC50 [9]	Activity [10]	Activity [11]	Activity [12]	viability at 10 µM [13]	Activity [14]	Activity [15]	Activity [16]	viability at 5 µM [17]	Activity [18]	Activity [19]	Activity [20]	further results
CCOP(=O)(OCC)C(NC(=O)C(C)Oc1ccc2c(c1O)C(=O)c1ccccc1C2=O)c1cccc2ccccc12 (stereo unspecified)	43.4%	24.74%	40.5 µM	Dose-dependent effect	70.9%	Dose-dependent effect	Dose-dependent effect	tde	1.02 µM	Active	59.86%	0.9%	44.6%	1.11%	2.4%	Dose-dependent effect	71.4%	tde	Active	Dose-dependent effect	viability at 8 µM [21]: 26.6%; Activity [22]: 31.5%; Activity [23]: 13.5%; Activity [24]: 19.9%; Activity [25]: tde; Activity [26]: Dose-dependent effect; Activity [27]: 15.41%; Activity [28]: 66.33%; Activity [29]: 1.4%; Activity [30]: 17.06%; Activity [31]: 65.57%; Activity [32]: 16.3%; IC50 [33]: 6.83 µM; Activity [34]: 14.8%; Activity [35]: 68.09%; Activity [36]: 0.41%; IC50 [37]: 15 µM
CCOP(=O)(OCC)C(NC(=O)C(C)Oc1ccc2c(c1O)C(=O)c1ccccc1C2=O)c1ccccc1OC (stereo unspecified)	30.7%	29.38%	88.2 µM	Dose-dependent effect	71.9%	Dose-dependent effect	Dose-dependent effect	tde	0.88 µM	Active	60.79%	0.7%	41.4%	13.09%	2.5%	Dose-dependent effect	62.1%	tde	Active	Dose-dependent effect	viability at 8 µM [21]: 28.2%; Activity [22]: 22.97%; Activity [23]: 11.1%; Activity [24]: 21.9%; Activity [25]: tde; Activity [26]: Dose-dependent effect; Activity [27]: 9.84%; Activity [28]: 64.92%; Activity [29]: 2.8%; Activity [30]: 11.81%; Activity [31]: 56.84%; Activity [32]: 8.6%; IC50 [33]: 9.8 µM; Activity [34]: 18.2%; Activity [35]: 68.16%; Activity [36]: 8.87%; IC50 [37]: 28.2 µM
CCOP(=O)(OCC)C(NC(=O)C(C)Oc1ccc2c(c1O)C(=O)c1ccccc1C2=O)c1ccccc1F (stereo unspecified)	33.6%	20.77%	21 µM	Dose-dependent effect	61.3%	Dose-dependent effect	Dose-dependent effect	tde	0.7 µM	Active	65.81%	0.5%	36.2%	16.3%	1.9%	Dose-dependent effect	61.6%	tde	Active	Dose-dependent effect	viability at 8 µM [21]: 31.1%; Activity [22]: 23.61%; Activity [23]: 13%; Activity [24]: 30.3%; Activity [25]: tde; Activity [26]: Dose-dependent effect; Activity [27]: 13.42%; Activity [28]: 60.05%; Activity [29]: 0.3%; Activity [30]: 11.25%; Activity [31]: 55.78%; Activity [32]: 9.2%; IC50 [33]: 3.8 µM; Activity [34]: 9.3%; Activity [35]: 65.52%; Activity [36]: 10.87%; IC50 [37]: 21.1 µM
